Key:
Assay type in all cases: cell-based, human
[1] = system: THP-1 cells; assay: Intracellular cytokine staining of THP-1 cells; settings: FIGS. 3A-3C, FIG. 10
Experimental: (§1) To identify cytokines that can be used to measure potency of a Listeria-based therapeutic the following tests were performed. Intracellular cytokine staining was used to detect T cells specificity. THP-1 were incubated with peptide overnight, mixed with T cells from above and centrifuged. The collected cells were then co-cultured at 37° C. for 1 hour. Brefeldin A was then added and the cells were co-cultured for another 4 hours. Brefeldin A inhibits secretion and permits analysis by flow cytometry. Cell were then stained to identify dead cells and CD8+ cells. The cell were then fixed and stained for IFNγ (using fix and permeabilization buffer from eBioscience/Invitrogen).
Intracellular cytokine staining of THP-1 cells.

[2] = system: THP-1 cells; assay: Cytokine production by THP-1 in the absence of T cells; settings: Without gentamicin; Listeria MOI of 10; optical density
[3] = system: T cells; assay: Intracellular cytokine staining of T cells; settings: Brefeldin A, FIG. 9
Experimental: as §1

[4] = system: HPV E7 Specific T cells; assay: THP-1/T cell co-culture: MOI, infection time and cell ratio titration; set-up: IFNγ / IL-1β / IL-6 / TNF-α: unit not given here; settings: for IFNγ production / IFNγ / IL-1β / IL-6 / TNF-α: THP-1 + peptide; for IFNγ production: THP-1 Cells 40000
Experimental: A separate experiment was performed with a range of MOI and 5 hours infection time. In this experiment only IFNγ was measured since this cytokine is only made by the T cells, not THP-1 cells. While there was still recognition of the ADXS11-001 infected THP-1 cells it was not as great as that observed in overnight cultures when compared to the peptide incubated THP-1.
The MOI used for infection was varied over a range of bacterial concentration. In Table 12 the effect of the different MOI on cytokine secretion by THP-1 is shown. […] Secretion of IFNγ by the T cells was related to the MOI with higher MOI stimulating higher IFNγ production, though there was significant IFNγ at all MOI.
Cell number and ratio of T cells to THP-1 cells was also analyzed. The above experiments all used 20,000 T cells and 20,000 THP-1 cells per well (1:1 ratio). We initially investigated the effect of cell number using THP-1 incubated with peptide. The number of both T cells and THP-1 were varied. THP-1 cells ranging from 40,000 cells to 5000 cells per well were incubated with T cells ranging from 20,000 to 5000 cells per well. Effect of varying THP-1 to T cell ratio on IFNγ production was investigated at both higher (1 μg/ml) and lower (0.1 μg/ml) peptide concentrations.
We investigated if this effect is reproducible in infected THP cells. Varying concentration of infected THP-1 cells ranging from 40000 to 10000 cells per well were incubated with T cells ranging from 40000 to 10000 cells per well to identify the optimum cell ratio for the assay. The effect of cell ratio on IFNγ production is similar to the effect observed with peptide incubation.
Titration studies with different multiplicity of infection (MOI). THP cells were infected for 2 hours with 3 different dilutions (MOI) of Listeria. Infected or uninfected THP cells were then cultured overnight for 24 hours before co-culturing the T cells. Cells were co-cultured overnight before cytokine analysis.

[5] = system: 9mer specific T cells; assay: Co-culture of THP-1 with 9mer specific T cells, cytokine production; set-up: IFNγ / IL-10 / IL-12p70 / IL-13 / IL-1β / IL-2 / IL-5 / IL-6 / TNF-α: unit not given here; settings: for IFNγ production, with 9mer specific T cells: Listeria MOI of 10, optical density
From the text: Analysis Kits and Reagents: Analysis of cytokine concentrations in culture medium used the U-plex assay kits from Meso Scale Discovery. Expression of T cell receptors specific for E7 peptide bound to HLA-A*02:01 was detected using HLA-A*02:01/peptide tetramers from MBL International (Woburn, Mass.).
There were several possible explanations for the muted response with THP-1 cells infected with ADSX11: including failure of THP-1 cells to process the 10mer epitope from full length E7 protein, failure of the THP-1 cells to present the processed 10mer E7 peptide on HLA-A*02:01, insufficient incubation of the infected cells to allow synthesis of the E7 protein and accumulation of the MHC/peptide complex on the cell surface, and/or an inhibitory effect of gentamicin. A culture of T cells specific for the 9mer epitope was used as well as a new culture of 10mer specific T cells. The THP-1 cells were infected as before with XFL7 or ADXS11-001 at an MOI of 10. After treatment with gentamicin for one hour, the cells were cultured overnight in the absence of gentamicin. The next day the infected cells were collected and co-cultured with 9mer or 10mer specific T cells. These co-cultures were set up in standard X-VIVO 15 and X-VIVO 15 without gentamicin or phenol red. The co-cultures were incubated overnight before collecting medium for cytokine analysis. The medium was tested for IFNγ concentrations and optical density. […] In addition, the 10mer specific T cells recognized ADXS11-001 infected THP-1 when there was no gentamicin in the medium.
To further explore the importance of the overnight incubation of infected THP-1, THP-1 cells infected overnight were compared to THP-1 cells infected for 2 hours. T cells specific for 9mer and 10mer peptides were co-cultured with each of the THP-1 cells and with uninfected or peptide exposed THP-1. As before, medium was collected after an overnight co-culture and cytokines were measured.
Optimization of infection time required for E7 presentation. THP-1 infected and cultured overnight compared to THP-1 infected for 2 hours and used after gentamicin treatment. Both 9-mer specific T cells and 10-mer specific T cells used. Assays were performed using X-VIVO 15 medium without gentamicin. The following cytokines were measured: IFNγ, IL-1β, IL-2, IL-10, IL-12p70, IL-13, IL-5, IL-6, TNFα.

[6] = 9mer T cells + peptide exposed THP-1, overnight co-culture

YMLDLQPETT [10mer]
Basal IFNγ in THP-1 cells after stimulation with peptide [1]: not detectable | IFNγ production, THP-1 alone [2]: 0.062 | IFNγ in T cells after stimulation with peptide [3]: higher levels of IFNγ | IFNγ production ([4]; T Cells 10000): 8078 | IFNγ production ([4]; T Cells 20000): 17968 | IFNγ production ([4]; T Cells 40000): 34161 | IFNγ ([4]; THP/T cell co-culture): 33835 | IL-1β ([4]; THP/T cell co-culture): 3 | IL-6 ([4]; THP/T cell co-culture): 23 | TNF-α ([4]; THP/T cell co-culture): 697 | IFNγ ([4]; co-culture with T cells): 65099 | IL-1β ([4]; co-culture with T cells): 6 | IL-6 ([4]; co-culture with T cells): 1243 | TNF-α ([4]; co-culture with T cells): 2309 | IFNγ Mean ([4]; THP-1 incubated with peptide, mean of triplicate): 41305 pg/mL | IFNγ production, with 9mer specific T cells ([5]; 50 μg/mL gentamicin): 0.075 | IFNγ [5, 6]: 112 | IL-1β [5, 6]: <LLOD | IL-2 [5, 6]: 3 | IL-5 [5, 6]: <LLOD | IL-6 [5, 6]: 0 | IL-10 [5, 6]: <LLOD | IL-12p70 [5, 6]: 0 | IL-13 [5, 6]: <LLOD | TNF-α [5, 6]: 2 | IFNγ production, with 9mer specific T cells ([5]; Without gentamicin): 0.066
